# Source: PubChem BioAssay (NCI)
#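 Cells were grown in 96-well plates and exposed to each compound for 48 hours at five concentrations; endpoints were interpolated linearly between bracketing concentrations, or set to the highest concentration if not reached. Here, GI50 denotes the concentration required for 50% inhibition of growth. TGI marks complete inhibition of growth.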
# Key:
# Assay in all cases: NCI-60 cell line screen, 48 h
# CAKI-1 renal = system: CAKI-1 renal
# SF-295 CNS = system: SF-295 CNS
# MOLT-4 leukemia = system: MOLT-4 leukemia
# MALME-3M melanoma = system: MALME-3M melanoma
# CCRF-CEM leukemia = system: CCRF-CEM leukemia
# PC-3 prostate = system: PC-3 prostate
# SF-539 CNS = system: SF-539 CNS
# HCC-2998 colon = system: HCC-2998 colon
# BT-549 breast = system: BT-549 breast
# SK-MEL-5 melanoma = system: SK-MEL-5 melanoma
# SK-MEL-2 melanoma = system: SK-MEL-2 melanoma
# TK-10 renal = system: TK-10 renal
# HS 578T breast = system: HS 578T breast
# MCF7 breast = system: MCF7 breast
# UO-31 renal = system: UO-31 renal
# ACHN renal = system: ACHN renal
# RXF 393 renal = system: RXF 393 renal
# UACC-62 melanoma = system: UACC-62 melanoma
# A498 renal = system: A498 renal
# KM12 colon = system: KM12 colon
# SK-MEL-28 melanoma = system: SK-MEL-28 melanoma
# NCI-H226 lung = system: NCI-H226 lung
# SF-268 CNS = system: SF-268 CNS
# OVCAR-5 ovarian = system: OVCAR-5 ovarian
# HCT-15 colon = system: HCT-15 colon
# HL-60(TB) leukemia = system: HL-60(TB) leukemia
# SNB-75 CNS = system: SNB-75 CNS
# IGROV1 ovarian = system: IGROV1 ovarian
# HOP-62 NSCLC = system: HOP-62 NSCLC
# HCT-116 colon = system: HCT-116 colon
# SR leukemia = system: SR leukemia
# SN12C renal = system: SN12C renal
# OVCAR-8 ovarian = system: OVCAR-8 ovarian
# NCI-H23 lung = system: NCI-H23 lung
# SK-OV-3 ovarian = system: SK-OV-3 ovarian
# 786-0 renal = system: 786-0 renal
# LOX IMVI melanoma = system: LOX IMVI melanoma
# EKVX NSCLC = system: EKVX NSCLC
# A549 NSCLC = system: A549 NSCLC
# K-562 leukemia = system: K-562 leukemia
# SW-620 colon = system: SW-620 colon
# T-47D breast = system: T-47D breast
# COLO 205 colon = system: COLO 205 colon
# SNB-19 CNS = system: SNB-19 CNS
# RPMI-8226 leukemia = system: RPMI-8226 leukemia
# NCI-H522 lung = system: NCI-H522 lung
# UACC-257 melanoma = system: UACC-257 melanoma
# M14 melanoma = system: M14 melanoma
# OVCAR-4 ovarian = system: OVCAR-4 ovarian
# NCI/ADR-RES ovarian = system: NCI/ADR-RES ovarian
# DU-145 prostate = system: DU-145 prostate
# NCI-H460 lung = system: NCI-H460 lung
# U251 CNS = system: U251 CNS
# OVCAR-3 ovarian = system: OVCAR-3 ovarian
# HT29 colon = system: HT29 colon
# MDA-MB-435 = system: MDA-MB-435
# MDA-MB-231 breast = system: MDA-MB-231 breast
# HOP-92 NSCLC = system: HOP-92 NSCLC
smiles,measurement,setting,value
CCCCCCCCCCCCNC(=O)N[C@H](C(=O)N[C@H]1/C=C/CCNC(=O)/C=C/[C@H](C)NC1=O)C(C)C,GI50,CAKI-1 renal,4.95 µM
same,TGI,CAKI-1 renal,> 100 µM
same,GI50,SF-295 CNS,0.239 µM
same,TGI,SF-295 CNS,1.45 µM
same,GI50,MOLT-4 leukemia,0.0448 µM
same,TGI,MOLT-4 leukemia,1.13 µM
same,GI50,MALME-3M melanoma,0.422 µM
same,TGI,MALME-3M melanoma,2.99 µM
same,GI50,CCRF-CEM leukemia,0.0495 µM
same,TGI,CCRF-CEM leukemia,5.13 µM
same,GI50,PC-3 prostate,0.0154 µM
same,TGI,PC-3 prostate,0.0665 µM
same,GI50,SF-539 CNS,0.0805 µM
same,TGI,SF-539 CNS,0.263 µM
same,GI50,HCC-2998 colon,0.0239 µM
same,TGI,HCC-2998 colon,0.0562 µM
same,GI50,BT-549 breast,0.0228 µM
same,TGI,BT-549 breast,0.0701 µM
same,GI50,SK-MEL-5 melanoma,0.163 µM
same,TGI,SK-MEL-5 melanoma,0.39 µM
same,GI50,SK-MEL-2 melanoma,0.207 µM
same,TGI,SK-MEL-2 melanoma,0.627 µM
same,GI50,TK-10 renal,0.0352 µM
same,TGI,TK-10 renal,0.191 µM
same,GI50,HS 578T breast,0.333 µM
same,TGI,HS 578T breast,24 µM
same,GI50,MCF7 breast,0.0577 µM
same,TGI,MCF7 breast,15.6 µM
same,GI50,UO-31 renal,32.2 µM
same,TGI,UO-31 renal,> 100 µM
same,GI50,ACHN renal,1.87 µM
same,TGI,ACHN renal,> 100 µM
same,GI50,RXF 393 renal,0.0166 µM
same,TGI,RXF 393 renal,0.0405 µM
same,GI50,UACC-62 melanoma,0.0447 µM
same,TGI,UACC-62 melanoma,0.168 µM
same,GI50,A498 renal,0.0649 µM
same,TGI,A498 renal,0.362 µM
same,GI50,KM12 colon,0.0222 µM
same,TGI,KM12 colon,0.0519 µM
same,GI50,SK-MEL-28 melanoma,0.208 µM
same,TGI,SK-MEL-28 melanoma,0.708 µM
same,GI50,NCI-H226 lung,0.0582 µM
same,TGI,NCI-H226 lung,0.167 µM
same,GI50,SF-268 CNS,0.0543 µM
same,TGI,SF-268 CNS,1.04 µM
same,GI50,OVCAR-5 ovarian,0.0271 µM
same,TGI,OVCAR-5 ovarian,0.114 µM
same,GI50,HCT-15 colon,2.76 µM
same,TGI,HCT-15 colon,> 100 µM
same,GI50,HL-60(TB) leukemia,0.143 µM
same,TGI,HL-60(TB) leukemia,13.3 µM
same,GI50,SNB-75 CNS,0.0345 µM
same,TGI,SNB-75 CNS,0.155 µM
same,GI50,IGROV1 ovarian,0.06 µM
same,TGI,IGROV1 ovarian,2.24 µM
same,GI50,HOP-62 NSCLC,0.0538 µM
same,TGI,HOP-62 NSCLC,0.178 µM
same,GI50,HCT-116 colon,0.0365 µM
same,TGI,HCT-116 colon,0.163 µM
same,GI50,SR leukemia,0.0294 µM
same,TGI,SR leukemia,0.958 µM
same,GI50,SN12C renal,0.184 µM
same,TGI,SN12C renal,0.591 µM
same,GI50,OVCAR-8 ovarian,0.463 µM
same,TGI,OVCAR-8 ovarian,4.19 µM
same,GI50,NCI-H23 lung,0.0513 µM
same,TGI,NCI-H23 lung,0.612 µM
same,GI50,SK-OV-3 ovarian,0.339 µM
same,TGI,SK-OV-3 ovarian,1.99 µM
same,GI50,786-0 renal,0.276 µM
same,TGI,786-0 renal,5.39 µM
same,GI50,LOX IMVI melanoma,0.113 µM
same,TGI,LOX IMVI melanoma,0.355 µM
same,GI50,EKVX NSCLC,0.477 µM
same,TGI,EKVX NSCLC,12.6 µM
same,GI50,A549 NSCLC,0.262 µM
same,TGI,A549 NSCLC,9.07 µM
same,GI50,K-562 leukemia,0.456 µM
same,TGI,K-562 leukemia,15.1 µM
same,GI50,SW-620 colon,0.0504 µM
same,TGI,SW-620 colon,1.34 µM
same,GI50,T-47D breast,0.144 µM
same,TGI,T-47D breast,0.36 µM
same,GI50,COLO 205 colon,0.0309 µM
same,TGI,COLO 205 colon,0.109 µM
same,GI50,SNB-19 CNS,0.0647 µM
same,TGI,SNB-19 CNS,15 µM
same,GI50,RPMI-8226 leukemia,0.0309 µM
same,TGI,RPMI-8226 leukemia,1 µM
same,GI50,NCI-H522 lung,0.0244 µM
same,TGI,NCI-H522 lung,0.0647 µM
same,GI50,UACC-257 melanoma,0.269 µM
same,TGI,UACC-257 melanoma,1.85 µM
same,GI50,M14 melanoma,0.221 µM
same,TGI,M14 melanoma,4.6 µM
same,GI50,OVCAR-4 ovarian,0.104 µM
same,TGI,OVCAR-4 ovarian,2.12 µM
same,GI50,NCI/ADR-RES ovarian,> 100 µM
same,TGI,NCI/ADR-RES ovarian,> 100 µM
same,GI50,DU-145 prostate,0.108 µM
same,TGI,DU-145 prostate,3.78 µM
same,GI50,NCI-H460 lung,0.0416 µM
same,TGI,NCI-H460 lung,0.288 µM
same,GI50,U251 CNS,0.0412 µM
same,TGI,U251 CNS,0.209 µM
same,GI50,OVCAR-3 ovarian,0.0566 µM
same,TGI,OVCAR-3 ovarian,0.935 µM
same,GI50,HT29 colon,0.0216 µM
same,TGI,HT29 colon,0.331 µM
same,GI50,MDA-MB-435,0.0316 µM
same,TGI,MDA-MB-435,0.286 µM
same,GI50,MDA-MB-231 breast,0.0709 µM
same,TGI,MDA-MB-231 breast,0.277 µM
same,GI50,HOP-92 NSCLC,0.123 µM
same,TGI,HOP-92 NSCLC,0.353 µM
